One series has as its system Spodoptera litura third instar larvae.
Experiment: not given
Conditions: active compound concentration of 100 ppm; sweet potato leaves immersed; after 7 days.
`CCc1ncccc1C(=O)Nc1c(NC2CC2)ncnc1-c1ccc(Cl)cc1` [1-177, N-[4-(4-Chlorophenyl)-6-cyclopropylaminopyrimidin-5-yl]-2-ethylnicotinamide] registered an insecticidal activity of 100%.
`CCc1ncccc1C(=O)Nc1c(NC2CC2)ncnc1-c1ccc(C(F)(C(F)(F)F)C(F)(F)F)cc1` [1-232] came in with an insecticidal activity of 100%.
On the same count and under the same terms, as for `O=C(Nc1c(NC2CC2)ncnc1-c1ccccc1)c1cccnc1C1CC1` [1-234], the figure is 100%.
On the same count and under the same terms, next, `O=C(Nc1c(NC2CC2)ncnc1-c1ccc(F)cc1)c1cccnc1C1CC1` [1-235]: 100%.
`O=C(Nc1c(NC2CC2)ncnc1-c1ccc(Cl)cc1)c1cccnc1C1CC1` [1-236] returned an insecticidal activity of 100%.
Turning to `CCCc1ncccc1C(=O)Nc1c(NC2CC2)ncnc1-c1ccccc1` [1-237], the insecticidal activity is 100%.
`CCCc1ncccc1C(=O)Nc1c(NC2CC2)ncnc1-c1ccc(F)cc1` [1-238] had an insecticidal activity of 100%.
The same measure, in the same setting: next, `CCCc1ncccc1C(=O)Nc1c(NC2CC2)ncnc1-c1ccc(Cl)cc1` [1-239]: 100%; `O=C(Nc1c(NC2CC2)ncnc1-c1ccc(F)cc1F)c1cccnc1C1CC1` [1-240]: 100%.
Turning to `O=C(Nc1c(NC2CC2)ncnc1-c1ccc(Cl)cc1)c1cccnc1C(F)(F)C(F)(F)F` [1-241], the insecticidal activity is reported as 100%.
Take `N#Cc1ccc(-c2ncnc(NC3CC3)c2NC(=O)c2cccnc2C2CC2)cc1` [1-242]: the insecticidal activity is reported as 100%.
Compound `O=C(Nc1c(NC2CC2)ncnc1-c1ccc(OC(F)(F)F)cc1)c1cccnc1C1CC1` [1-243] yielded an insecticidal activity of 100%.
The compound `CCCc1ncccc1C(=O)Nc1c(NC2CC2)ncnc1-c1ccc(Cl)cc1Cl` [1-244] had an insecticidal activity of 100%.
In turn, `CCCc1ncccc1C(=O)Nc1c(NC2CC2)ncnc1-c1ccc(F)cc1F` [1-245] showed an insecticidal activity of 100%.
The compound `CCCc1ncccc1C(=O)Nc1c(NC2CC2)ncnc1-c1ccc(C#N)cc1` [1-246] registered an insecticidal activity of 100%.
With `CCc1ncccc1C(=O)Nc1c(NC2CC2)ncnc1-c1ccc(Cn2nc(C(F)(F)C(F)(F)F)cc2C(F)(F)F)cc1` [1-247], the insecticidal activity amounted to 100%.
The compound `O=C(Nc1c(NC2CC2)ncnc1-c1ccc(Cn2nc(C(F)(F)F)cc2C(F)(F)F)cc1)c1cccnc1C1CC1` [1-252] gave an insecticidal activity of 100%.
As for `O=C(Nc1c(NC2CC2)ncnc1-c1ccc(Cn2nc(C(F)(F)C(F)(F)F)cc2C(F)(F)F)cc1)c1cccnc1C1CC1` [1-253], the insecticidal activity came to 100%.
Compound `O=C(Nc1c(NC2CC2)ncnc1-c1ccc(F)cc1F)c1cccnc1CC(F)(F)F` [1-254] displayed an insecticidal activity of 100%.
`CCc1ccccc1C(=O)Nc1c(NC2CC2)ncnc1-c1ccc(OC(F)(F)F)cc1` [1-257] returned an insecticidal activity of 100%.
On the same count and under the same terms, as for `CCc1ncccc1C(=O)Nc1c(NC2CC2)ncnc1-c1ccc(Cn2nc(C(F)(F)F)nc2C(F)(F)F)cc1` [1-258], the figure is 100%.
Compound `O=C(Nc1c(NC2CC2)ncnc1-c1ccc(Cn2nc(C(F)(F)F)nc2C(F)(F)F)cc1)c1cccnc1C1CC1` [1-259] showed an insecticidal activity of 100%.
`CCCc1ncccc1C(=O)Nc1c(NC2CC2)ncnc1-c1ccc(Cn2nc(C(F)(F)F)nc2C(F)(F)F)cc1` [1-264] showed an insecticidal activity of 100%.
Same read-out and setting: next, `CCc1ccccc1C(=O)Nc1c(NC2CC2)ncnc1-c1ccc(Cn2nc(C(F)(F)F)nc2C(F)(F)F)cc1` [1-265]: 100%.
As for `CCc1ncccc1C(=O)Nc1c(NC2CC2)ncnc1-c1ccc(Cn2ccc(C(F)(F)C(F)(F)F)n2)cc1` [1-266], the insecticidal activity was found to be 100%.
In turn, `CCc1ncccc1C(=O)Nc1c(NC2CC2)ncnc1-c1ccc(Cn2ccc(C(F)(F)C(F)(F)C(F)(F)F)n2)cc1` [1-267] showed an insecticidal activity of 100%.
With `CCc1ncccc1C(=O)Nc1c(NC2CC2)ncnc1-c1ccc(Cn2nc(C(F)(F)F)cc2C(F)(F)F)cc1` [1-268], the insecticidal activity worked out at 100%.
For `CCc1ncccc1C(=O)Nc1c(NC2CC2)ncnc1-c1ccc(Cn2nc(C(F)(F)C(F)(F)F)cc2C(F)(F)C(F)(F)F)cc1` [1-269], the insecticidal activity is listed as 100%.
For `CCc1ccccc1C(=O)Nc1c(NC2CC2)ncnc1-c1ccc(Cn2cnc(C(F)(F)F)n2)cc1` [1-286], the insecticidal activity was 100%.
The compound `CCc1ncccc1C(=O)Nc1c(NC2CC2)ncnc1-c1ccc(Oc2ncc(C(F)(F)F)cc2Cl)cc1` [1-310] showed an insecticidal activity of 100%.
`CCc1ncccc1C(=O)Nc1c(NC2CC2)ncnc1-c1ccc(Oc2ncccc2C(F)(F)F)cc1` [1-311] came in with an insecticidal activity of 100%.
In turn, `CCc1ncccc1C(=O)Nc1c(NC2CC2)ncnc1-c1ccc(Oc2cccc(C(F)(F)F)n2)cc1` [1-312] returned an insecticidal activity of 100%.
`CCc1ncccc1C(=O)Nc1c(NC2CC2)nc(C(F)(F)F)nc1-c1ccc(F)cc1` [1-313]: the insecticidal activity was 100%.
For the compound `CCc1ncccc1C(=O)Nc1c(NC2CC2)nc(C(F)(F)F)nc1-c1ccc(F)cc1F` [1-314], the insecticidal activity turned out to be 100%.
In turn, `CCc1ncccc1C(=O)Nc1c(NC2CC2)ncnc1-c1ccc(Oc2nc(C(F)(F)F)cc(C(F)(F)C(F)(F)F)n2)cc1` [1-317] yielded an insecticidal activity of 100%.
Turning to `CCc1ncccc1C(=O)Nc1c(NC2CC2)ncnc1-c1ccc(Cc2nc(C(F)(F)C(F)(F)C(F)(F)F)n(C)n2)cc1` [1-318], the insecticidal activity is 100%.
In turn, `CCc1ncccc1C(=O)Nc1c(NC2CC2)ncnc1-c1ccc(Cc2n[nH]c(C(F)(F)C(F)(F)C(F)(F)F)n2)cc1` [1-319] gave an insecticidal activity of 100%.
On the same count and under the same terms, as for `O=C(Nc1c(NC2CC2)nc(C(F)(F)F)nc1-c1ccc(F)cc1)c1cccnc1CC(F)(F)F` [1-324], the figure is 100%; as for `O=C(Nc1c(NC2CC2)nc(Cl)nc1-c1ccc(F)cc1)c1cccnc1CC(F)(F)F` [1-325], 100%.
For the compound `CCc1ncccc1C(=O)Nc1c(NC2CC2)nc(Cl)nc1-c1ccc(F)cc1` [1-326], the insecticidal activity is 100%.
For the compound `CCc1ncccc1C(=O)Nc1c(Cl)ncnc1Nc1ccc(F)cc1` [5-2], the insecticidal activity came out at 100%.

Tested on in a further series: not listed separately
In words: logP (HCOOH), physicochemical characterization.
Conditions: not given
Take `Cc1ncccc1C(=O)Nc1c(NC2CC2)ncnc1-c1ccc(F)cc1` [1-1]: the “logP (HCOOH)” value stood at 0.71.
For the compound `CCc1ncccc1C(=O)Nc1c(NC2CC2)ncnc1-c1ccc(SC(F)(F)F)cc1` [1-114], the “logP (HCOOH)” value is given as 1.4.
As to `O=C(Nc1c(NC2CC2)ncnc1-c1ccccc1)c1cccnc1` [1-128], the “logP (HCOOH)” value is 0.63.
Regarding `CCc1ncccc1C(=O)Nc1c(NC2CC2)ncnc1-c1ccc(C#N)cc1` [1-133], the “logP (HCOOH)” value is 1.10.
For the compound `CCc1ncccc1C(=O)Nc1c(NC2CC2)ncnc1-c1ccc(F)cc1Cl` [1-139], the “logP (HCOOH)” value stood at 0.79.
As to `CCOc1ncccc1C(=O)Nc1c(NC2CC2)ncnc1-c1ccc(C#N)cc1` [1-160], the “logP (HCOOH)” value stood at 1.80.
With `CCc1ncccc1C(=O)Nc1c(NC2CC2)ncnc1-c1ccc(F)cc1C` [1-180], the “logP (HCOOH)” value amounted to 1.10.
Same read-out and setting: as for `CCc1ncccc1C(=O)Nc1c(NC2CC2)ncnc1-c1ccccc1C` [1-182], the figure is 0.94; as for `CCc1ncccc1C(=O)Nc1c(NC2CC2)ncnc1-c1ccc(Cl)cc1C` [1-188], 1.40.
In the case of `O=C(Nc1c(NC2CC2)ncnc1-c1ccc(Cl)cc1)c1c(F)cccc1Cl` [1-263], the “logP (HCOOH)” value amounted to 2.20.
`CCCc1ncccc1C(=O)Nc1c(NC2CC2)ncnc1-c1ccc(Cn2nc(C(F)(F)F)nc2C(F)(F)F)cc1` [1-264]: the “logP (HCOOH)” value turned out to be 1.9.
Regarding `CCc1ncccc1C(=O)Nc1c(NC2CC2)nc(C)nc1-c1ccccc1` [1-275], the “logP (HCOOH)” value amounted to 0.76.
As to `CCc1ncccc1C(=O)Nc1c(NC2CC2)nc(C)nc1-c1ccc(F)cc1` [1-276], the “logP (HCOOH)” value is recorded as 0.88.
For `CCc1ncccc1C(=O)Nc1c(NC2CC2)nc(C)nc1-c1ccc(F)cc1F` [1-278], the “logP (HCOOH)” value is listed as 1.
`CCc1ncccc1C(=O)Nc1c(Br)ncnc1NC1CC1` [3-3]: the “logP (HCOOH)” value turned out to be 0.84.
The same measure, in the same setting: as for `O=C(Nc1c(NC2CC2)ncnc1-c1ccc(F)cc1)c1ccnn1-c1ccc(F)cc1` [9-1], the figure is 1.70.
With `O=C(Nc1c(NC2CC2)ncnc1-c1ccc(F)cc1)c1ccnn1-c1ccc(Cl)cc1` [9-2], the “logP (HCOOH)” value stood at 2.02.
The same measure, in the same setting: next, `O=C(Nc1c(NC2CC2)ncnc1-c1ccc(F)cc1)c1ccnn1-c1ccccc1Cl` [9-3]: 1.76; `O=C(Nc1c(NC2CC2)ncnc1-c1ccc(Cl)cc1)c1ccnn1-c1ccccc1Cl` [9-4]: 2.05.
